In US20060009493A1, “Indolinone hydrazides as c-Met inhibitors” (Sugen, Inc., priority 2003, published 2006) one finds IC50 data, which are given here for 34 molecules.

Broadly, the IC50 is the concentration that gives 50% inhibition. The low end stands for higher potency, the high end for lower potency.

T1 sequence (P08581 1078-1345 limits assumed): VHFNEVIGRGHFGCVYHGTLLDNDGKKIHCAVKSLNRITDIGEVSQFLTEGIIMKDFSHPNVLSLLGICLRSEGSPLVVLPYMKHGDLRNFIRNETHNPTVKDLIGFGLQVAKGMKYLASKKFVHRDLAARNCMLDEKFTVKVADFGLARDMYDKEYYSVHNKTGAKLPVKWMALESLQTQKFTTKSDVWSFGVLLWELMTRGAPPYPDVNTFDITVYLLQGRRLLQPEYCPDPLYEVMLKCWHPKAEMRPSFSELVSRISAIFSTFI

This experiment has as its target T1, GST fusion protein containing the Met kinase domain (Homo sapiens, UniProt P08581).
T1 construct: Purified GST fusion protein containing the Met kinase domain, Sugen, Inc
As to the kind of experiment: MET Transphosphorylation Assay (ELISA, poly(Glu,Tyr) 4:1 substrate). It counts as biochemical. The note with it: met transphosphorylation of poly(glutamic acid:tyrosine 4:1) substrate; two values in a cell separated by '/'. In short, it runs like this: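 Poly(Glu-Tyr)-coated wells received the GST-Met kinase domain (10 ng/well) with compound in DMSO for 15 minutes. The reaction was started with ATP/MnCl2 in HEPES pH 7.5 buffer with vanadate, run 5 minutes, and stopped with EDTA. Phosphotyrosine was detected by anti-pTyr antibody, HRP secondary and ABTS/H2O2.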
A general note: An ELISA detects its analyte on a solid surface through an enzyme-linked reagent.
Molecule `O=C(Cc1cc(=O)[nH]c(=O)[nH]1)N/N=C1\C(=O)Nc2c(Cl)ccc(Cl)c21` [II-82, (2,6-Dioxo-1,2,3,6-tetrahydro-pyrimidin-4-yl)-acetic acid [(3Z)-4,7-dichloro-2-oxo-1,2-dihydro-indol-3-ylidene]-hydrazide] came in with an IC50 greater than 20000 nM. `O=C(CCc1ccc(O)cc1)N/N=C1\C(=O)Nc2cccc(Cl)c21` [II-83, 3-(4-Hydroxy-phenyl)-propionic acid [(3Z)-4-chloro-2-oxo-1,2-dihydro-indol-3-ylidene]-hydrazide] came in with an IC50 of 81 nM.

`O=C(CCc1ccccc1)N/N=C1\C(=O)Nc2c(Cl)ccc(Cl)c21` [II-84, 3-Phenyl-propionic acid [(3Z)-4,7-dichloro-2-oxo-1,2-dihydro-indol-3-ylidene]-hydrazide]: the IC50 was greater than 20000 nM. For `Cc1ccc(C)c2c1NC(=O)/C2=N\NC(=O)Cc1ccccc1` [II-85, Phenyl-acetic acid [(3Z)-4,7-dimethyl-2-oxo-1,2-dihydro-indol-3-ylidene]-hydrazide], half-maximal inhibition (IC50) was put at 91 nM. `COc1ccc(CCC(=O)N/N=C2\C(=O)Nc3c(Cl)ccc(Cl)c32)cc1` [II-86, 3-(4-Methoxy-phenyl)-propionic acid [(3Z)-4,7-dichloro-2-oxo-1,2-dihydro-indol-3-ylidene]-hydrazide]: the IC50 was found to be 2000 nM. This IC50 is about 22-fold higher than that of the molecule before.

In turn, `O=C(Cc1cc(O)[nH]n1)N/N=C1\C(=O)Nc2c(Cl)ccc(Cl)c21` [II-87, (5-Hydroxy-1H-pyrazol-3-yl)-acetic acid [(3Z)-4,7-dichloro-2-oxo-1,2-dihydro-indol-3-ylidene]-hydrazide] displayed an IC50 of 630 nM. Compared with the last molecule, the IC50 is about 3.2-fold lower. `O=C(Cc1cc(=O)[nH]cn1)N/N=C1\C(=O)Nc2ccccc21` [II-88, (6-Oxo-1,6-dihydro-pyrimidin-4-yl)-acetic acid [(3Z)-2-oxo-1,2-dihydro-indol-3-ylidene]-hydrazide] had an IC50 of 5990 nM. Consider `O=C(Cc1cnc(=O)[nH]c1)N/N=C1\C(=O)Nc2ccccc21` [II-89, (2-Oxo-1,2-dihydro-pyrimidin-5-yl)-acetic acid [(3Z)-2-oxo-1,2-dihydro-indol-3-ylidene]-hydrazide], for which the half-maximal inhibitory concentration (IC50) was 12600 nM. Regarding `O=C(Cc1c[nH]c(=O)[nH]c1=O)N/N=C1\C(=O)Nc2ccccc21` [II-90, (2,4-Dioxo-1,2,3,4-tetrahydro-pyrimidin-5-yl)-acetic acid [(3Z)-2-oxo-1,2-dihydro-indol-3-ylidene]-hydrazide], the IC50 was greater than 20000 nM.

`CC(C)(C(=O)N/N=C1\C(=O)Nc2c(Cl)ccc(Cl)c21)c1ccc(Cl)cc1` [II-91, 2-(4-Chloro-phenyl)-2-methyl-propionic acid [(3Z)-4,7-dichloro-2-oxo-1,2-dihydro-indol-3-ylidene]-hydrazide]: the IC50 is greater than 20000 nM. In turn, `CC(C)(C(=O)N/N=C1\C(=O)Nc2ccc(C(=O)O)c(Cl)c21)c1ccc(Cl)cc1` [II-92, (3Z)-4-Chloro-3-{[2-(4-chloro-phenyl)-2-methyl-propionyl]-hydrazono}-2-oxo-2,3-dihydro-1H-indole-5-carboxylic acid] returned an IC50 greater than 20000 nM. On to `Cc1ccc(C)c2c1NC(=O)/C2=N\NC(=O)CCc1ccc(N)cc1` [II-93, 3-(4-Amino-phenyl)-propionic acid [(3Z)-4,7-dimethyl-2-oxo-1,2-dihydro-indol-3-ylidene]-hydrazide], for which the IC50 was greater than 20000 nM.

For the molecule `COc1ccc2c(c1Cl)/C(=N/NC(=O)Cc1ccc(O)cc1)C(=O)N2` [II-94, (4-Hydroxy-phenyl)-acetic acid [(3Z)-4-chloro-5-methoxy-2-oxo-1,2-dihydro-indol-3-ylidene]-hydrazide], the IC50 stood at 21 nM. As for `COc1cc(Cl)c2c(c1Cl)/C(=N/NC(=O)Cc1ccc(O)cc1)C(=O)N2` [II-95, (4-Hydroxy-phenyl)-acetic acid [(3Z)-4,7-dichloro-5-methoxy-2-oxo-1,2-dihydro-indol-3-ylidene]-hydrazide], the figure is 32 nM.

For the molecule `O=C(Cc1cnc(=O)[nH]c1)N/N=C1\C(=O)Nc2c(Cl)ccc(Cl)c21` [II-96, (2-Oxo-1,2-dihydro-pyrimidin-5-yl)-acetic acid [(3Z)-4,7-dichloro-2-oxo-1,2-dihydro-indol-3-ylidene]-hydrazide], the IC50 stood at 3080 nM. `COc1c(O)c2c(c(Cl)c1Cl)NC(=O)/C2=N\NC(=O)Cc1ccc(O)cc1` [II-97, (4-Hydroxy-phenyl)-acetic acid [(3Z)-6,7-dichloro-4-hydroxy-5-methoxy-2-oxo-1,2-dihydro-indol-3-ylidene]-hydrazide] gave an IC50 of 320 nM. Compared with the last molecule, the IC50 is about 9.6-fold lower.

In the case of `COc1ccc2c(c1)/C(=N/NC(=O)Cc1ccc(O)cc1)C(=O)N2` [II-98, (4-Hydroxy-phenyl)-acetic acid [(3Z)-5-methoxy-2-oxo-1,2-dihydro-indol-3-ylidene]-hydrazide], the IC50 amounted to 89 nM. Compared with the last molecule, the IC50 is about 3.6-fold lower.

For the molecule `COc1ccc2c(c1Cl)/C(=N/NC(=O)C(C)c1ccc(O)cc1)C(=O)N2` (stereo not shown) [II-99, 2-(4-Hydroxy-phenyl)-propionic acid [(3Z)-4-chloro-5-methoxy-2-oxo-1,2-dihydro-indol-3-ylidene)-hydrazide], the IC50 turned out to be 45 nM. The same measure for `COc1cc(CC(=O)N/N=C2\C(=O)Nc3c(Cl)ccc(Cl)c32)cc(OC)c1O` [II-100, (4-Hydroxy-3,5-dimethoxy-phenyl)-acetic acid [(3Z)-4,7-dichloro-2-oxo-1,2-dihydro-indol-3-ylidene)-hydrazide]: greater than 20000 nM. The same measure for `O=C(Cc1ccc(O)c(Br)c1)N/N=C1\C(=O)Nc2ccccc21` [II-101, (3-Bromo-4-hydroxy-phenyl)-acetic acid [(3Z)-2-oxo-1,2-dihydro-indol-3-ylidene]-hydrazide]: 54 nM. The molecule `O=C(Cc1ccc(O)c(Br)c1)N/N=C1\C(=O)Nc2c(Cl)ccc(Cl)c21` [II-102, (3-Bromo-4-hydroxy-phenyl)-acetic acid [(3Z)-4,7-dichloro-2-oxo-1,2-dihydro-indol-3-ylidene]-hydrazide] showed an IC50 of 190 nM. `CC(C(=O)N/N=C1\C(=O)Nc2ccccc21)c1ccc(O)c(Br)c1` (stereo not shown) [II-103, 2-(3-Bromo-4-hydroxy-phenyl)-propionic acid [(3Z)-2-oxo-1,2-dihydro-indol-3-ylidene]-hydrazide] showed an IC50 of 180 nM. The molecule `CC(C(=O)N/N=C1\C(=O)Nc2c(Cl)ccc(Cl)c21)c1ccc(O)c(Br)c1` (stereo not shown) [II-104, 2-(3-Bromo-4-hydroxy-phenyl)-propionic acid [(3Z)-4,7-dichloro-2-oxo-1,2-dihydro-indol-3-ylidene]-hydrazide] had an IC50 of 790 nM. Against the preceding molecule, the IC50 is about 4.4-fold higher. As for `CC(C(=O)N/N=C1\C(=O)Nc2ccc(O)c(Cl)c21)c1ccc(F)cc1` (stereo not shown) [II-105, 2-(4-Fluoro-phenyl)-propionic acid [(3Z)-4-chloro-5-hydroxy-2-oxo-1,2-dihydro-indol-3-ylidene)-hydrazide], the IC50 was 420 nM. Turning to `COc1ccc(CC(=O)N/N=C2\C(=O)Nc3c(Cl)ccc(Cl)c32)cc1C#N` [II-106, (3-Cyano-4-methoxy-phenyl)-acetic acid [(3Z)-4,7-dichloro-2-oxo-1,2-dihydro-indol-3-ylidene]-hydrazide], the IC50 is greater than 20000 nM.

The molecule `COc1ccc(CC(=O)N/N=C2\C(=O)Nc3c(C)ccc(C)c32)cc1C#N` [II-107, (3-Cyano-4-methoxy-phenyl)-acetic acid [(3Z)-4,7-dimethyl-2-oxo-1,2-dihydro-indol-3-ylidene]-hydrazide] came in with an IC50 greater than 20000 nM. As to `N#Cc1cc(CC(=O)N/N=C2\C(=O)Nc3ccccc32)ccc1O` [II-108, (3-Cyano-4-hydroxy-phenyl)-acetic acid [(3Z)-2-oxo-1,2-dihydro-indol-3-ylidene)-hydrazide], it took 11900 nM to reach half-maximal inhibition (IC50). Molecule `N#Cc1cc(CC(=O)N/N=C2\C(=O)Nc3c(Cl)ccc(Cl)c32)ccc1O` [II-109, (3-Cyano-4-hydroxy-phenyl)-acetic acid [(3Z)4,7-dichloro-2-oxo-1,2-dihydro-indol-3-ylidene)-hydrazide] yielded an IC50 of 1620 nM. As to `COc1ccc(CC(=O)N/N=C2\C(=O)Nc3ccc(C(=O)O)c(Cl)c32)cc1C#N` [II-110, (3Z)-4-Chloro-3-{[2-(3-cyano-4-methoxy-phenyl)-acetyl]-hydrazono}-2-oxo-2,3-dihydro-1H-indole-5-carboxylic acid], the IC50 is greater than 20000 nM.

In the case of `N#Cc1cc(CC(=O)N/N=C2\C(=O)Nc3ccc(C(=O)O)c(Cl)c32)ccc1O` [II-111, (3Z)-4-Chloro-3-{[2-(3-cyano-4-hydroxy-phenyl)-acetyl]-hydrazono}-2-oxo-2,3-dihydro-1H-indole-5-carboxylic acid], 3340 nM corresponded to half-maximal inhibition (IC50). Consider `Cc1ccc(C)c2c1NC(=O)/C2=N\NC(=O)Cc1ccc(O)c(C#N)c1` [II-112, (3-Cyano-4-hydroxy-phenyl)-acetic acid [(3Z)-4,7-dimethyl-2-oxo-1,2-dihydro-indol-3-ylidene]-hydrazide], for which the IC50 was 2500 nM.

`COc1cc(Cl)c2c(c1Cl)/C(=N/NC(=O)C(C)c1ccc(O)cc1)C(=O)N2` (stereo not shown) [II-113, 2-(4-Hydroxy-phenyl)-propionic acid [(3Z)4,7-dichloro-5-methoxy-2-oxo-1,2-dihydro-indol-3-ylidene)-hydrazide] gave an IC50 of 47 nM. This IC50 is about 53-fold lower than that of the molecule before. As for `Cc1ccc(Cl)c2c1NC(=O)/C2=N\NC(=O)C(C)c1ccc(F)cc1` (stereo not shown) [II-114, 2-(4-Fluoro-phenyl)-propionic acid [(3Z)4-chloro-7-methyl-2-oxo-1,2-dihydro-indol-3-ylidene]-hydrazide], the figure is 200 nM; as for “(3-Chloro-4-hydroxy-phenyl)-acetic acid [(3Z)-4,7-dimethyl-2-oxo-1,2-dihydro-indol-3-ylidene]-hydrazide [II-48]”, 20 nM.
